Reference: ChEMBL document CHEMBL3991943, “Pharmaceutical formulations comprising salts of a protein kinase inhibitor and methods of using same” (2013)

Legend:
[1] = Solubility of the compound in PBS buffer at pH 7; format: physicochemical
[2] = Solubility of the compound in water by HPLC analysis; format: physicochemical
Mus musculus [3] = assay: Toxicity in athymic nude mouse xenografted with human A549 cells assessed as loss of body weight at 10 mg/kg, po qd administered 5 days for 3 weeks; format: organism-based; details: in vivo
Rattus norvegicus [4] = assay: Acute toxicity in rat assessed as loss of body weight at 0.625 to 10 mg/kg, iv administered as single dose for 30 mins measured on day 2; format: organism-based; details: in vivo, 0.5 h
OVCAR-3 = assay: Induction of DNA damage in human OVCAR3 cells assessed as increase in gamma-H2AX levels at 10 uM in presence of topotecan; format: functional
Canis familiaris [5] = assay: Acute toxicity in Beagle dog assessed as weight gain at 10 mg/kg, iv administered for 48 hrs followed by 20 mg/kg, iv administered for 3 days measured everyday after second dose; format: organism-based, Canis lupus familiaris; details: in vivo
Rattus norvegicus [6] = assay: Acute toxicity in rat assessed as red urine at 0.625 to 10 mg/kg, iv administered as single dose for 30 mins measured immediately, 10 mins and 1 hr post dose; format: organism-based; details: in vivo
Mus musculus [7] = assay: Toxicity in athymic nude mouse xenografted with human A549 cells assessed as loss of body weight at 50 to 150 mg/kg, po qd administered 5 days for 3 weeks; format: organism-based; details: in vivo
A549 = assay: Antitumor activity against human A549 cells xenografted in athymic nude mouse assessed as tumor growth at 10 mg/kg, po qd administered 5 days for 3 weeks measured on day 26 (reference value: 43 mm3/day); format: functional
Canis familiaris [8] = assay: Acute toxicity in female Beagle dog assessed as intestinal mucosal congestion at 0.625 to 20 mg/kg, iv administered with 48 to 96 hrs between dose escalations with exception of 11 days between dose 5 and 6 measured after 21 days; format: organism-based, Canis lupus familiaris; details: in vivo, 504 h
Rattus norvegicus [9] = assay: Acute toxicity in rat assessed as bright red lungs at 10 mg/kg, iv administered as single dose for 30 mins measured on day 4; format: organism-based; details: in vivo, 0.5 h
Canis familiaris [10] = assay: Acute toxicity in Beagle dog assessed as urination at 0.625 to 20 mg/kg, iv dosed with 48 to 96 hrs between dose escalations with exception of 11 days between dose 5 and 6 measured during dose 6 administration; format: organism-based, Canis lupus familiaris; details: in vivo
Mus musculus [11] = assay: Toxicity in athymic nude mouse xenografted with human HT-29 cells assessed as loss of body weight at 10 to 20 mg/kg, ip qd administered 5 days for 2 weeks; format: organism-based; details: in vivo
Canis familiaris [12] = assay: Acute toxicity in Beagle dog assessed as depression at 0.625 to 20 mg/kg, iv dosed with 48 to 96 hrs between dose escalations with exception of 11 days between dose 5 and 6 measured during dose 6 administration; format: organism-based, Canis lupus familiaris; details: in vivo
Mus musculus [13] = assay: Toxicity in athymic nude mouse xenografted with human TT cells at 7.5 to 15 mg/kg, ip qd administered for 2 weeks; format: organism-based; details: in vivo, 336 h
Rattus norvegicus [14] = assay: Acute toxicity in rat assessed as recumbency at 10 mg/kg, iv administered for 30 mins measured after 1 hr post dose; format: organism-based; details: in vivo
Canis familiaris [15] = assay: Acute toxicity in Beagle dog assessed as recumbency at 0.625 to 20 mg/kg, iv dosed with 48 to 96 hrs between dose escalations with exception of 11 days between dose 5 and 6 measured during dose 6 administration; format: organism-based, Canis lupus familiaris; details: in vivo
Canis familiaris [16] = assay: Acute toxicity in male Beagle dog assessed as adverse clinical signs at 10 mg/kg, iv; format: organism-based, Canis lupus familiaris; details: in vivo
Canis familiaris [17] = assay: Acute toxicity in Beagle dog assessed as anxiety at 0.625 to 20 mg/kg, iv dosed with 48 to 96 hrs between dose escalations with exception of 11 days between dose 5 and 6 measured during dose 6 administration; format: organism-based, Canis lupus familiaris; details: in vivo
Rattus norvegicus [18] = assay: Acute toxicity in rat assessed as labored breathing at 10 mg/kg, iv administered for 30 mins measured immediately and 10 mins post dose; format: organism-based; details: in vivo
Canis familiaris [19] = assay: Acute toxicity in Beagle dog assessed as defecation at 0.625 to 20 mg/kg, iv dosed with 48 to 96 hrs between dose escalations with exception of 11 days between dose 5 and 6 measured during dose 6 administration; format: organism-based, Canis lupus familiaris; details: in vivo
Canis familiaris [20] = assay: Acute toxicity in male Beagle dog assessed as animal appearance at 0.625 to 20 mg/kg, iv dosed with 48 to 96 hrs between dose escalations with exception of 11 days between dose 5 and 6 measured following day after dose 6 administration; format: organism-based, Canis lupus familiaris; details: in vivo
Rattus norvegicus [21] = assay: Acute toxicity in rat assessed as mortality at 10 mg/kg, iv administered for 30 mins measured post dose; format: organism-based; details: in vivo, 0.5 h
Canis familiaris [22] = assay: Acute toxicity in male Beagle dog assessed as mild venous congestion in meningeal vein between brain hemispheres and in venous sinus on cranial floor at 10 mg/kg, iv administered for 48 hrs followed by 20 mg/kg, iv administered for 3 days measured post dose; format: organism-based, Canis lupus familiaris; details: in vivo
Rattus norvegicus [23] = assay: Acute toxicity in rat assessed as recumbency at 10 mg/kg, iv administered for 30 mins measured immediately and 10 mins post dose; format: organism-based; details: in vivo
Rattus norvegicus [24] = assay: Acute toxicity in rat assessed as induction of red urine excretion at 10 mg/kg, iv administered for 30 mins measured after 1 hr post dose; format: organism-based; details: in vivo
Canis familiaris [25] = assay: Acute toxicity in Beagle dog assessed as facial swelling at 0.625 to 20 mg/kg, iv dosed with 48 to 96 hrs between dose escalations with exception of 11 days between dose 5 and 6 measured during dose 6 administration; format: organism-based, Canis lupus familiaris; details: in vivo
Rattus norvegicus [26] = assay: Acute toxicity in rat assessed as normal appearance at 0.625 to 10 mg/kg, iv administered as single dose for 30 mins measured on day 4; format: organism-based; details: in vivo, 0.5 h
Canis familiaris [27] = assay: Acute toxicity in Beagle dog assessed as animal appearance at 0.625 to 20 mg/kg, iv administered with 48 to 96 hrs between dose escalations with exception of 11 days between dose 5 and 6 measured after doses 1 through 5 and prior to dose 6; format: organism-based, Canis lupus familiaris; details: in vivo
Canis familiaris [28] = assay: Acute toxicity in female Beagle dog assessed as mortality at 0.625 to 20 mg/kg, iv measured after 5 mins of completion of dose 6 administration; format: organism-based, Canis lupus familiaris; details: in vivo
Canis familiaris [29] = assay: Acute toxicity in Beagle dog assessed as thrombus formation in veins at 10 mg/kg, iv administered for 48 hrs followed by 20 mg/kg, iv administered for 3 days measured post dose; format: organism-based, Canis lupus familiaris; details: in vivo
Mus musculus [30] = assay: Toxicity in athymic nude mouse xenografted with human HT-29 cells assessed as overt toxicity at 10 to 20 mg/kg, ip qd administered 5 days for 2 weeks; format: organism-based; details: in vivo
Rattus norvegicus [31] = assay: Acute toxicity in rat assessed as red tinged urine at 10 mg/kg, iv administered for 30 mins measured post dose; format: organism-based; details: in vivo, 0.5 h
Rattus norvegicus [32] = assay: Acute toxicity in rat assessed as lethargy at 10 mg/kg, iv administered for 30 mins measured at 1 hr post dose; format: organism-based; details: in vivo
Canis familiaris [33] = assay: Acute toxicity in Beagle dog at 20 mg/kg, iv; format: organism-based, Canis lupus familiaris; details: in vivo
Rattus norvegicus [34] = assay: Acute toxicity in rat assessed as wobbly appearance at 0.625 to 10 mg/kg, iv administered as single dose for 30 mins measured immediately, 10 mins and 1 hr post dose; format: organism-based; details: in vivo
Rattus norvegicus [35] = assay: Acute toxicity in rat assessed as induction of red urine excretion at 10 mg/kg, iv administered for 30 mins measured immediately, 10 mins and 1 hr post dose; format: organism-based; details: in vivo
Rattus norvegicus [36] = assay: Acute toxicity in rat assessed as normal appearance at 10 mg/kg, iv administered for 30 mins measured on day 4; format: organism-based; details: in vivo, 0.5 h
Canis familiaris [37] = assay: Acute toxicity in Beagle dog assessed as weight gain at 0.625 to 20 mg/kg, iv dosed with 48 to 96 hrs between dose escalations with exception of 11 days between dose 5 and 6 measured during course of 21 study days; format: organism-based, Canis lupus familiaris; details: in vivo
Rattus norvegicus [38] = assay: Acute toxicity in rat assessed as dark red mottled lungs at 10 mg/kg, iv administered for 30 mins measured post dose; format: organism-based; details: in vivo, 0.5 h
Canis familiaris [39] = assay: Acute toxicity in female Beagle dog assessed as meningeal vessel congestion at 0.625 to 20 mg/kg, iv administered with 48 to 96 hrs between dose escalations with exception of 11 days between dose 5 and 6 measured after 21 days; format: organism-based, Canis lupus familiaris; details: in vivo, 504 h
Rattus norvegicus [40] = assay: Acute toxicity in rat assessed as lethargy at 10 mg/kg, iv administered for 30 mins measured after 1 hr post dose; format: organism-based; details: in vivo
Canis familiaris [41] = assay: Acute toxicity in Beagle dog assessed as adverse events at 10 mg/kg, iv administered for 48 hrs followed by 20 mg/kg, iv administered for 3 days measured everyday after second dose; format: organism-based, Canis lupus familiaris; details: in vivo

SMILES: O=S(=O)(O)O.S=C(NCc1ccc2c(c1)OCO2)N1CCN(c2ncnc3c2oc2ccccc23)CC1
- solubility [1]: 1.7 µg/mL
- solubility [2]: 3.3 µg/mL

SMILES: O=c1[nH]cc(F)c(=O)[nH]1 [FLUOROURACIL]
- Activity (Mus musculus [3]): Non-Toxic

SMILES: S=C(NCc1ccc2c(c1)OCO2)N1CCN(c2ncnc3c2oc2ccccc23)CC1 [AMUVATINIB]
- Activity (Rattus norvegicus [4]): Toxic
- Activity (OVCAR-3): 103%
- Activity (Canis familiaris [5]): Toxic
- Activity (Rattus norvegicus [6]): Toxic
- Activity (Mus musculus [7]): Non-Toxic
- Activity (A549): 19.5 mm3/day
- Activity (Canis familiaris [8]): Toxic
- Activity (Rattus norvegicus [9]): Toxic
- Activity (Canis familiaris [10]): Toxic
- Activity (Mus musculus [11]): Non-Toxic
- Activity (Canis familiaris [12]): Toxic
- Activity (Mus musculus [13]): Non-Toxic
- Activity (Rattus norvegicus [14]): Non-Toxic
- Activity (Canis familiaris [15]): Toxic
- Activity (Canis familiaris [16]): Non-Toxic
- Activity (Canis familiaris [17]): Toxic
- Activity (Rattus norvegicus [18]): Toxic
- Activity (Canis familiaris [19]): Toxic
- Activity (Canis familiaris [20]): Non-Toxic
- Activity (Rattus norvegicus [21]): Toxic
- Activity (Canis familiaris [22]): Toxic
- Activity (Rattus norvegicus [23]): Toxic
- Activity (Rattus norvegicus [24]): Non-Toxic
- Activity (Canis familiaris [25]): Toxic
- Activity (Rattus norvegicus [26]): Non-Toxic
- Activity (Canis familiaris [27]): Non-Toxic
- Activity (Canis familiaris [28]): Toxic
- Activity (Canis familiaris [29]): Toxic
- Activity (Mus musculus [30]): Toxic
- Activity (Rattus norvegicus [31]): Toxic
- Activity (Rattus norvegicus [32]): Toxic
- Activity (Canis familiaris [33]): Toxic
- Activity (Rattus norvegicus [34]): Toxic
- Activity (Rattus norvegicus [35]): Toxic
- Activity (Rattus norvegicus [36]): Non-Toxic
- Activity (Canis familiaris [37]): Toxic
- Activity (Rattus norvegicus [38]): Toxic
- Activity (Canis familiaris [39]): Toxic
- Activity (Rattus norvegicus [40]): Non-Toxic
- Activity (Canis familiaris [41]): Toxic

SMILES: O=S(=O)(O)c1ccccc1.S=C(NCc1ccc2c(c1)OCO2)N1CCN(c2ncnc3c2oc2ccccc23)CC1
- solubility [2]: 4.26 µg/mL
